The results in this text go back to patent US12473273B2, “Quinoline compounds and compositions for inhibiting EZH2” (Novartis AG, priority 2020, dated 2025).

The structures appear in SMILES notation. pIC50: −log10 of the molar value.

Assay [1] relates to H3K27 methylation in G401 cell. The experiment in a line: ELISA (H3K27 methylation) assay. Type of assay: cell-based. The note with it: cultured 48 h with compound, normalized using H3 signal. The method, then:
ELISA (H3K27 methylation) assay
Representative compounds of the invention were serially and separately diluted 3-fold in DO to obtain a total of eight or twelve concentrations. Then the compounds were added to G401 cell cultured in 384-well plate at 1:500 dilution to obtain the highest concentration of 20 μM. The cells were further cultured for 48 h before ELISA procedure.
Histone extraction: Cells, in 384-well plate, were washed with PBS (10 x PBS buffer (80 g NaCl (Sigma, S3014), 2 g KCl (Sigma, 60128), 14.4 g Na2HPO4 (Sigma, S5136), 2.4 g KH2PO4 (Sigma, P9791) to 1 L water, pH to 7.4) and lysed with the addition of lysis buffer (0.4N HCl; 45 μl per well). The plate was gently agitated at 4° C. for 30 min. The cell lysate was neutralized with neutralization buffer (0.5 M sodium phosphate dibasic, pH 12.5. 1 mM DTT; 36 µL per well). The plate was agitated to ensure the lysates were well mixed prior to the ELISA protocol.
ELISA protocol: Cell lysates were transferred to the wells of a 384-well plate and the final volume was adjusted to 50 μL per well with PBS. The plate was sealed, centrifuged at 2,000 rpm for 2 min and incubated at 4° C. for about 16 h. The plate was washed with TBST buffer (1 x TBS (10x TBS: 24.2 g Tris (Sigma, T6066), 80 g NaCl (Sigma, S3014) to 1 L of water and adjust pH to 7.6 with HCl) with 0.1% Tween-20). Blocking buffer (TBST, 5% BSA; 50 µL per well) was added and the plate was incubated for 1 h at rt. The blocking buffer was removed and primary antibody was added (30 μL per well). The following dilutions were performed with blocking buffer: for anti-H3K27me3 antibody (Cell Signaling Technology, #9733), dilution was 1:1000; for anti-H3K27me2 antibody (Cell Signaling Technology, #9288), dilution was 1:100; for anti-H3 antibody (Abcam, Cat #24834), dilution was 1:1000. The primary antibody was incubated in the plate at rt for 1 h. The wells were washed with TBST and incubated with secondary antibody for 1 h at rt. For secondary antibodies, the following dilutions were carried out with blocking buffer: anti-rabbit antibody (Jackson ImmunoResearch, #111-035-003), dilution was 1:2000; and anti-mouse antibody (Cell signaling technology, #7076), dilution was 1:1000.
After 1 h of incubation at rt, the wells were washed with TBST. ECL substrate (Pierce, #34080) was added at 30 μL per well and the plates were centrifuged at 2,000 rpm for 2 min. The signal was read using a PerkinElmer Envision Reader. The H3K27 methylation readouts were normalized using H3 signal and then percentage inhibition was calculated against the samples treated with DO. The data were fit to a dose response curve using the program Helios to get the IC50 values of the test compound.
For orientation: ELISA stands for enzyme-linked immunosorbent assay.

Assay [2] addresses wild type PRC2 (wtPRC2) complex (Homo sapiens, UniProt Q15910). The experiment in a line: EZH2 LC-MS Assay. In kind it is biochemical. As to conditions: 40 nM wtPRC2 complex, 30 uM SAM, 1.5 uM H3K27me1 and 3 uM H3K27me3 peptides; SAH production. The method, then:
Representative compounds of the invention were serially and separately diluted 3-fold in DMSO to obtain twelve concentrations. Then the test compounds at each concentration (120 nL of each) were transferred by Mosquito into a 384-well Perkin Elmer ProxiPlate 384 plus plates. Solutions (6 μL) of 80 nM wild type PRC2 (wtPRC2) complex and 60 µM SAM in reaction buffer (20 mM Tris, pH 8.0, 0.1% BSA, 0.01% Triton, 0.5 mM DTT) were added to the wells that were then incubated with the test compound for 20 min. A 6 μL solution of 3 µM of the substrate peptide H3K27me1 (histone H3 [21-44]-K27me1-biotin) and 6 μM regulatory peptide H3K27me3 (histone H3 [21-44]-K27me3) in reaction buffer was added to initiate each reaction. The final components in the reaction solution include 40 nM wtPRC2 complex, 30 µM SAM, 1.5 µM H3K27me1 and 3 µM H3K27me3 peptides with varying concentration of the compounds. A positive control consisted of the enzyme at 40 nM, 30 μM SAM, 1.5 µM H3K27me1 and 3 µM H3K27me3 in the absence of the test compound, and a negative control consisted of 30 µM SAM, 1.5 µM H3K27me1 and 3 μM H3K27me3 only. Each reaction was incubated at room temperature for 120 min, then stopped by addition of 3 μL per of quench solution (2.5% TFA with 320 nM d4-SAH). The reaction mixture was centrifuged (Eppendorf centrifuge 5810, Rotor A-4-62) for 2 min at 2000 rpm and read on an API 4000 triple quadrupole mass spec with Turbulon Spray (Applied Biosystem) coupled with Prominence UFLC (Shimadzu). The levels of SAH production were normalized based on the values coming from the positive and negative controls to give percent enzyme activities. The data were fit to a dose response equation using the program Helios to get the […] values of the test compound.

Chain of wild type PRC2 (wtPRC2) complex (Q15910 whole entry): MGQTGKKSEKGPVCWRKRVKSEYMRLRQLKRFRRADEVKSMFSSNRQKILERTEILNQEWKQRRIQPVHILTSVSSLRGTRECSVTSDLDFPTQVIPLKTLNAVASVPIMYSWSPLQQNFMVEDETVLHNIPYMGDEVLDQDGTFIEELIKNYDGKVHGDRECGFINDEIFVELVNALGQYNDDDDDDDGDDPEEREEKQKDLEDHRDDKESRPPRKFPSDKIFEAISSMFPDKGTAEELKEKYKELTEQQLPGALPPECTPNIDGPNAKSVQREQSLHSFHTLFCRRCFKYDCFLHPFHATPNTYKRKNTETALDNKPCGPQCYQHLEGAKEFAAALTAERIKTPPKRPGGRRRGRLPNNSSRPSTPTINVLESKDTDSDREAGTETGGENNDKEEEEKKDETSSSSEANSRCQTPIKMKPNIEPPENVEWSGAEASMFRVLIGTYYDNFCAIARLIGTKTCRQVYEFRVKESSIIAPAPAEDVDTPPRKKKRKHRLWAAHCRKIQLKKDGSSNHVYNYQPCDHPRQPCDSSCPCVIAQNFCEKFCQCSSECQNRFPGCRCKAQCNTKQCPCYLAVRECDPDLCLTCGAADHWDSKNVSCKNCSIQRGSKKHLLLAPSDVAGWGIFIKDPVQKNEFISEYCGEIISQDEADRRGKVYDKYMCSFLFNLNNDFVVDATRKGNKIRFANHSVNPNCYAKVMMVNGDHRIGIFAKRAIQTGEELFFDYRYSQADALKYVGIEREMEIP
Chain of wild type PRC2 (wtPRC2) complex (O75530 whole entry partner): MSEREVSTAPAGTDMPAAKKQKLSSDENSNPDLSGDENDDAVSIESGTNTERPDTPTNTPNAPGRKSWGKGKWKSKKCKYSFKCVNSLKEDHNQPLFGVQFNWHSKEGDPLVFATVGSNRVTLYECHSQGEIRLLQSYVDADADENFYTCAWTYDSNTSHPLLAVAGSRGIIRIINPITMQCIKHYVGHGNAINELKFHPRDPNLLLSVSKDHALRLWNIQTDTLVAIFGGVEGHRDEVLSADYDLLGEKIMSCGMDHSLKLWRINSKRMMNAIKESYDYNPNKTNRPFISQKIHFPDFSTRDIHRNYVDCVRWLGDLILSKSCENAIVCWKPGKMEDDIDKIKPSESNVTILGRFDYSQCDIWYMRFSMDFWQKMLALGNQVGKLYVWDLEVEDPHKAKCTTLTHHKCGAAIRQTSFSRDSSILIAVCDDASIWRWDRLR
Chain of wild type PRC2 (wtPRC2) complex (Q15022 whole entry partner): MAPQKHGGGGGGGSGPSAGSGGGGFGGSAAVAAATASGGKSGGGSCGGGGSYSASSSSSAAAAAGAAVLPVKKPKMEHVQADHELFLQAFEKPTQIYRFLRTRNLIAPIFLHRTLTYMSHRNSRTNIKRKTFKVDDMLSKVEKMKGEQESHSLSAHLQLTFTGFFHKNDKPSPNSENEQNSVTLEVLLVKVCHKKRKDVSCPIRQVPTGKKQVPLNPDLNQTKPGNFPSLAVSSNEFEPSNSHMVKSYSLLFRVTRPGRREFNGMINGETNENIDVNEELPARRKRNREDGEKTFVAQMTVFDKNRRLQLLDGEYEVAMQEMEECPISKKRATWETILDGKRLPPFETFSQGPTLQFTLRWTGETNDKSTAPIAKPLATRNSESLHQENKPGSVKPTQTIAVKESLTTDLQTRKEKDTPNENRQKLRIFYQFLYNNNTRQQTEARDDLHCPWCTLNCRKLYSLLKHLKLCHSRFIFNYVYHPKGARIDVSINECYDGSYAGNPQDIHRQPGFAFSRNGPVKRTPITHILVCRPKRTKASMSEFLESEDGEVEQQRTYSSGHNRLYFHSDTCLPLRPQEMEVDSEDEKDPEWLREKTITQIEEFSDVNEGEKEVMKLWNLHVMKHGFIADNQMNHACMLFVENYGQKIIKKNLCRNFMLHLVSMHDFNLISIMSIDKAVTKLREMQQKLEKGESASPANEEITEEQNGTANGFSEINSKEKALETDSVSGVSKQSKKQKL

Broadly, the pIC50 is the IC50 on a negative log10 scale, so that one unit is a factor of ten. `Cc1ccc2ccc(N[C@H]3CC[C@H](CNc4ncc([C@H](O)C(=O)NC5COC5)cn4)CC3)nc2c1Cl` (single isomer, unassigned) [Example 11, (S)-2-(2-((((1r,4S)-4-((8-chloro-7-methylquinolin-2-yl)amino)cyclohexyl)methyl)amino)pyrimidin-5-yl)-2-hydroxy-N-(oxetan-3-yl)acetamide; or (R)-2-(2-((((1r,4R)-4-((8-chloro-7-methylquinolin-2-yl)amino)cyclohexyl)methyl)amino)pyrimidin-5-yl)-2-hydroxy-N-(oxetan-3-yl)acetamide]: the figures for the negative logarithm of the IC50 (pIC50) in assay [1] and in assay [2] were greater than 8.00 and greater than 7.30, respectively.
